In US9243278B2, “Mechanotransduction by the synergistic action of heterotypic cell interactions” (Brown University, priority 2011, dated 2016):
“Also recorded” adds a separate entry of the source.

Columns and labels:
[1] = tested on: 1:1 (NHF:H35) microtissues; conditions: cultured four hours, then overnight at 37° C. in 5 mM EDTA in PBS
Method: To determine if extracellular calcium disintegrated the microtissues, 1:1 (NHF: H35) microtissues were cultured for 4 hours. Culture media was removed, and microtissues were washed with PBS, and then incubated overnight at 37° C. in 5 mM EDTA in PBS. Control samples were kept in regular culture media or PBS.
To examine if enhanced power was transduced through cell-cell interactions 1:1 (NHF:H35) were cultured for four hours and then incubated in EDTA to destabilize the calcium dependent cell-cell adhesions. Control samples were kept in regular culture media or PBS.

[2] = tested on: rat hepatocyte cell line (H35); experiment: toroid-on-cone cell power assay, homotypic H35 toroids; type: cell-based
Method: (§1) Toroid molds suitable for side view microcopy were designed as previously described (9). Toroid molds were designed using the computer aided design (CAD) software Solid Works (Solid Works Corporation, Concord, Mass., USA). The mold was designed with 12 features to create wells. Each feature is a rounded edged (350 μm in diameter) cylinder (1.1 mm) with a cone indent in the center. The slope of the central cone was 65° and it is 650 μm in diameter. CAD files were used to produce thermowax molds with a rapid prototyping machine (3D Systems Corporation, Valencia, Calif.).
(§2) Wax molds were used to cast 13% polyacrylamide gels. Gels were removed from wax molds and transferred to six well culture plates. Each of the resulting wells is a circular trough confined by the hydrogel wall at the outer edge of the trough and by a conical peg on the inner edge of the trough. The gels were rinsed with fresh culture medium and then equilibrated overnight at 37° C. in 4 ml of DMEM supplemented with 1% penicillin/streptomycin (pen/strep). After equilibration, the medium was removed, and the gels were rinsed with fresh medium.
(§3) NHFs (passage 4-10), derived from neonatal foreskins, and H35s (passage 5-11) were grown in T-175 flasks in DMEM with 10% FBS and 1% pen/strep at 37° C. and 10% CO2. Cells were removed from flasks using a standard trypsin process. Briefly, cells were exposed to 0.05% trypsin for 10 minutes, quenched with serum containing medium, spun down at 800 rpm for 6 minutes, resuspended in a known volume of medium, and counted using a hemocytometer. Cell solution (70 μl) was added to each hydrogel. After 30 minutes, 4 ml of fresh medium was added to each of the wells. After seeding, images of the samples were taken every 2 hours for about 8 hours. Pure NHF microtissues were seeded with about 10,500, about 21,000, about 25,000 or about 35,000 cells/well. Heterotypic microtissues were seeded at ratios of about 1:1, about 2:3, about 1:4; about 1:6, about 1:10, about 1:16, and about 1:20 (NHF:H35). The seeding per well for heterotypic samples was kept constant at about 21,000 cells/well. For TGF-β1 experiments, NHFs and H35s were incubated for 48 hours in DMEM with 10% FBS, 1% penn/strep and 5 ng/ml human recombinant TGF-β1 (Invitrogen, Carlsbad, Calif., USA), passed according to standard protocol, and seeded at about 21,000 cells/well. NHFs^TGF-β1 coseeded with H35s were seeded in DMEM with 10% FBS, 1% penn/strep without additional TGF-β1.
To investigate the effect of paracrine factors, media from homotypic toroids containing about 10,500 H35s and from homotypic toroids containing about 10,500 NHFs was collected. The conditioned media was seeded about 10,500 NHFs with the media collected from the H35s and also seeded about 10,500 H35s with the media collected from the NHFs. Power was analyzed at four hours since this is the time enhanced power for heterotypic toroids which contained about 10,500 H35s and about 10,500 NHFs (1:1 samples).
(§4) Convential view fluorescent and phase images were captured using Carl Zeiss Axio Observer Z1 with an AxioCam Mrm camera (Carl Zeiss MicroImaging, Thornwood, N.Y., USA). To capture side view images, a Mitutoyo FS-110 microscope was modified to lie on its back and a translational stage was added to hold samples. […]
The range of power exerted by increasing numbers of NHFs (>3 fold) in a homotypic environment by seeding the cells into non-adhesive hydrogels with toroid recesses, each with a central cone (65° slope) was measured. […]

[3] = tested on: normal human fibroblasts (NHF); experiment: toroid-on-cone cell power assay, homotypic NHF toroids; type: cell-based
Method: as §1, §2
as §3, with “TGF-β1. […]” for “TGF-β1.”
(§5) Convential view fluorescent and phase images were captured using Carl Zeiss Axio Observer Z1 with an AxioCam Mrm camera (Carl Zeiss MicroImaging, Thornwood, N.Y., USA). To capture side view images, a Mitutoyo FS-110 microscope was modified to lie on its back and a translational stage was added to hold samples. Samples were imaged in bright field through the eyepiece of the microscope. ImageJ Software (NIH Rasband, W.S. USA) was used to measure the height of the toroid, the major radius, and the minor radius of the toroid.
(§6) The range of power exerted by increasing numbers of NHFs (>3 fold) in a homotypic environment by seeding the cells into non-adhesive hydrogels with toroid recesses, each with a central cone (65° slope) was measured. Cells settled and formed cell-cell adhesions that drove the toroid shaped microtissue up the cone. The power necessary to move the NHF toroid up the cone as P=ΔW/Δt was calculated, where ΔW is work performed against gravity to move a toroid of a known mass to a given height, and Δt is the time over which the work is performed (9). […] Toroid power increased linearly as cell number increased, but power per NHF (cell power) was independent of cell number, with a peak cell power of 0.22±0.02 fJ/hr (2 hrs) and an average cell power (over all time points) of 0.16±0.03 fJ/hr.

[4] = tested on: heterotypic toroids of NHFs and H35s; experiment: toroid-on-cone cell power assay, heterotypic NHF:H35 toroids; type: cell-based, human, rat
Method: as §1, §2, §3, §5, §6
The data shown in Table 1 show heterotypic toroids have enhanced power. […]

NHFs and H35s = experiment: self-sorting of fluorescently labeled NHFs and H35s in microtissues; type: cell-based, human, rat
Method: For sorting experiments, NHFs and H35s were incubated with 2.5 μM CellTracker™ Red CMPTX and CellTracker™ Green CMFDA™ (Invitrogen, Carlsbad, Calif., USA), respectively, in serum free media for 30 minutes. After incubation, the dye was aspirated and the cells equilibrated in serum media for 1 hour prior to passing. For NHF^TGF-β1:H35 sorting experiments NHFs were incubated for 48 hours in DMEM with 10% FBS, 1% penn/strep and 5 ng/ml TGF-β1. After incubation the NHF^TGF-β1 and H35s were fluorescently labeled and passed as previously described.
as §4, with “samples. Samples were imaged in bright field through the eyepiece of the microscope.” for “samples.”
Using self sorting to identify drugs, TGF-β1 is a growth factor linked to fibrosis and well known for its ability to increase cell mediated contraction and synthesis of extracellular matrix proteins such as collagen. […] Also, as self-sorting proceeds the quantity of heterotypic interface decreases and the homotypic interface increases as cells partition. […]

[5] = H35^TGF-β1 homotypic toroid, 24 hours
[6] = homotypic toroid 100% NHF^TGF-β

Compound: O=C(O)CN(CCN(CC(=O)O)CC(=O)O)CC(=O)O [EDTA]
- microtissue integrity [1]: disintegrated into monodispersed cells

Compound: transforming growth factor-β1 [TGF-β1]
- Toroid Power [2, 5]: 0.45 ± 0.08 pJ/h
- cell power [2, 5]: 0.022 ± 0.004 fJ/h
- change in H35 power compared to untreated controls ([2]; homotypic H35 toroids treated with TGF-β1): doubled
- Toroid Power ([2]; homotypic toroid 100% H35^TGF-β): 0.45 pJ/h
- Enhancement in Toroid Power ([2]; homotypic toroid 100% H35^TGF-β versus control): 0.19 pJ/h
- height of the NHF^TGF-β1 toroid relative to untreated NHFs ([3]; 2 hours, NHFs treated 48 hours in 5 ng/ml TGF-β1): twice as far; also recorded: increased two fold
- average cell power ([3]; NHF^TGF-β1): 0.16 ± 0.21 fJ/h
- peak cell power ([3]; NHF^TGF-β1, 2 hrs): 0.47 fJ/h
- Toroid Power ([3]; NHF^TGF-β1 homotypic toroid, two hours): 9.82 ± 1.32 pJ/h
- increase in NHF cell power in the homotypic environment ([3]; TGF-β treatment alone): about 1.9 fold
- change in NHF cell power relative to untreated controls (in words) ([3]; homotypic NHF toroids treated with TGF-β1): doubling in cell power; also recorded: increased only two fold; also recorded: doubled; also recorded: doubles cell power
- Enhancement in NHF Cell Power [3, 6]: 0.23 fJ/hr/NHF
- Toroid Power [3, 6]: 9.80 pJ/h
- Enhancement in Toroid Power ([3]; homotypic toroid 100% NHF^TGF-β versus control): 4.7 pJ/h
- Fold Increase in NHF Cell Power ([3]; homotypic toroid 100% NHF^TGF-β, effects of TGF-β alone): 1.9x
- H35 has Enhanced Power ([4]; 1:1 (NHF^TGF-β:H35)): 0.11 fJ/hr per H35
- NHF has Enhanced Power ([4]; 1:1 (NHF^TGF-β:H35)): 0.58 fJ/hr per NHF
- Relative Increase in NHF Cell Power ([4]; 1:1 (NHF^TGF-β:H35)): 2.4x
- Measured Toroid Power ([4]; 1:1 (NHF^TGF-β:H35), at time of peak power, NHFs pretreated 48 hours with 5 ng/ml TGF-β1): 6.05 pJ/h
- Enhanced Toroid Power ([4]; 1:1 (NHF^TGF-β:H35), measured minus projected): 1.16 pJ/h
- Projected Toroid Power ([4]; 1:1 (NHF^TGF-β:H35), power per TGF-β treated NHF x number of NHFs): 4.90 pJ/h
- toroid height relative to respective control ([4]; 1:1 NHF^TGF-β1 mixed with untreated H35s): 1.4 times
- Enhanced Toroid Power ([4]; 1:10 (NHF^TGF-β:H35)): 4.41 pJ/h
- H35 has Enhanced Power ([4]; 1:10 (NHF^TGF-β:H35)): 0.23 fJ/hr per H35
- NHF has Enhanced Power ([4]; 1:10 (NHF^TGF-β:H35)): 5.30 fJ/hr per NHF
- Projected Toroid Power ([4]; 1:10 (NHF^TGF-β:H35)): 0.89 pJ/h
- Relative Increase in NHF Cell Power ([4]; 1:10 (NHF^TGF-β:H35)): 22.1x
- Measured Toroid Power ([4]; 1:10 (NHF^TGF-β:H35), peak power, combination of 6 and 8 hours): 5.30 pJ/h
- toroid height relative to respective control ([4]; 1:10 NHF^TGF-β1 mixed with untreated H35s): 4.4 times
- Enhanced Toroid Power ([4]; 1:20 (NHF^TGF-β:H35)): 3.63 pJ/h
- H35 has Enhanced Power ([4]; 1:20 (NHF^TGF-β:H35)): 0.18 fJ/hr per H35
- NHF has Enhanced Power ([4]; 1:20 (NHF^TGF-β:H35)): 4.13 fJ/hr per NHF
- Projected Toroid Power ([4]; 1:20 (NHF^TGF-β:H35)): 0.47 pJ/h
- Relative Increase in NHF Cell Power ([4]; 1:20 (NHF^TGF-β:H35)): 17.2x
- Measured Toroid Power ([4]; 1:20 (NHF^TGF-β:H35), at time of peak power): 4.10 pJ/h
- toroid height relative to respective control ([4]; 1:20 NHF^TGF-β1 mixed with untreated H35s): 6.3 times
- Enhancement in NHF Cell Power ([4]; 5%:95% (NHF^TGF-β:H35)): 4.13 fJ/hr/NHF
- Enhancement in Toroid Power ([4]; 5%:95% (NHF^TGF-β:H35)): 3.63 pJ/h
- Fold Increase in NHF Cell Power ([4]; 5%:95% (NHF^TGF-β:H35)): 17.2x
- Toroid Power ([4]; 5%:95% (NHF^TGF-β:H35)): 4.10 pJ/h
- Enhancement in NHF Cell Power ([4]; 10%:90% (NHF^TGF-β:H35)): 5.30 fJ/hr/NHF
- Enhancement in Toroid Power ([4]; 10%:90% (NHF^TGF-β:H35)): 4.41 pJ/h
- Toroid Power ([4]; 10%:90% (NHF^TGF-β:H35)): 5.30 pJ/h
- Fold Increase in NHF Cell Power ([4]; 10%:90% (NHF^TGF-β:H35), effects of TGF-β & hetero environment): 22.1x
- Enhancement in NHF Cell Power ([4]; 50%:50% (NHF^TGF-β:H35)): 0.58 fJ/hr/NHF
- Enhancement in Toroid Power ([4]; 50%:50% (NHF^TGF-β:H35)): 1.16 pJ/h
- Fold Increase in NHF Cell Power ([4]; 50%:50% (NHF^TGF-β:H35)): 2.4x
- Toroid Power ([4]; 50%:50% (NHF^TGF-β:H35)): 6.05 pJ/h
- total cell power ([4]; NHF^TGF-β1, about 1:10 mix, between four and eight hours): 5.3 ± 1.32 fJ/h
- peak cell power ([4]; NHF^TGF-β1, about 1:20 mix): 4.13 ± 1.22 fJ/h
- increase in cell power, heterotypic environment and TGF-β1 ([4]; TGF-β1 treated NHFs with untreated H35s, enhanced power distributed to NHFs): 22 ×
- increase in cell power, TGF-β1 treatment in conjunction with the heterotypic environment ([4]; compared to untreated NHFs in a homotypic toroid): greater than 22 times
- increase in NHF cell power, TGF-β1 treatment combined with heterotypic environment ([4]; compared to untreated NHFs in homotypic toroid, 10% NHFs: 90% H35s): about 22.1 fold
- increase of NHF^TGF-β1 cell power in the heterotypic environment ([4]; versus NHF^TGF-β1 in homotypic environment): greater than 11 times
- self-sorting of NHFs and H35s in heterotypic toroids (NHFs and H35s; NHF^TGF-β1:H35 toroids (1:10), up to 24 hours): prevented sorting; also recorded: reduced; also recorded: sorting was eliminated
- self-sorting of NHFs and H35s in spheroids (NHFs and H35s; mixes (1:1) of NHFs and H35s treated with TGF-β1): inhibited self-sorting
